We go through six compounds from patent publication US20230242521A1, “PHARMACEUTICAL COMPOSITION FOR PREVENTING OR TREATING PANCREATIC CANCER ASSOCIATED WITH RON MUTATION AND METHOD USING SAME” (WELLMARKER BIO CO., LTD., priority 2020, published 2023).

In assay [1] the test system is Capan-1 pancreatic cancer cell line (mutation RONΔ155 type). The experiment in a line: MTS assay, cell growth inhibitory ability, Capan-1. In kind it is cell-based. Particulars: Homo sapiens; Capan-1, RON mutation Δ155, cultured 72 hours. As for the experimental part:
(§1) In order to compare and confirm the cell growth inhibitory ability of Examples 1 (WM-S1-030) to 5 and positive control 1 (BMS-777607) in two pancreatic cancer cell lines ofa mutation RONΔ155 type (Panc-1 and Capan-1) and one pancreatic cancer cell line of a mutation RONΔ160 type (Mia-PaCa2), MTS assay was carried out.
(§2) For MTS assay, 1,000 cells of each pancreatic cancer cell line per well were seeded in a 96-well-plate, and 24 hours later, treated with the compounds of Examples 1 to 5 and positive control 1 at various concentrations (0.000001 μM to 10 μM) in 100 μL of 10% FBS-RPMI medium (Welgene) per each well. Thereafter, the cells were cultured for 72 hours. 20 μL of MTS solution (Promega) was added and cultured for 2 hours, and then absorbance was measured at 490 nm. The cytotoxicity was analyzed by deriving the IC50 for the compounds of Examples 1 to 5 and positive control 1 using GraphPad Prism™ 5.

Assay [2] deals with Panc-1 pancreatic cancer cell line (mutation RONΔ155 type). The assay is described as follows: MTS assay, cell growth inhibitory ability, Panc-1. In kind it is cell-based. Conditions: Homo sapiens; Panc-1, RON mutation Δ155, cultured 72 hours. As for the experimental part:
as §1, §2

For assay [3], the system named is Mia-PaCa2 pancreatic cancer cell line (mutation RONΔ160 type). The experiment in a line: MTS assay, cell growth inhibitory ability, Mia-PaCa2. Type of assay: cell-based. Particulars: Homo sapiens; Mia-PaCa-2, RON mutation Δ160, cultured 72 hours. The protocol: as §1, §2
The test system of assay [4] is Mia-PaCa2 (mRONΔ160) pancreatic cancer cell line transplanted tumor. The experiment in a line: Tumor growth inhibition in Mia-PaCa2 transplanted mouse model. Type of assay: in vivo. Particulars: orally once a day for 4 weeks; for Tumor growth inhibition rate (TGI, %): 30 mg/kg, BALB/c-nude mice with Mia-PaCa2 tumor; for tumor growth inhibition (in words): 30 mpk, Mia-PaCa2 transplanted mice. From the text:
FIG. 2 illustrates the results obtained by confirming the tumor growth rate for a mouse model transplanted with the Mia-PaCa2 cell line, which is a pancreatic cancer cell line of a mutation RONΔ160 type, having received Example 1 (WM-S1-030) at a dose of 30 mpk and positive control 1 (BMS-777607) at a dose of 30 mpk. It was confirmed whether tumor growth was inhibited by administering Example 1 (WM-S1-030) at a dose of 30 mpk to a mouse model transplanted with Mia-PaCa2, which is a pancreatic cancer cell line of a mutation RONΔ160 type. Specifically, 5-week-old female BALB/c-nude mice were purchased and acclimatized for 1 week. Thereafter, Mia-PaCa2 (2×10^6 cells/mouse), a pancreatic cancer cell line of a mutation RONΔ160 type, was diluted in PBS (phosphate buffered saline) and Matrigel, and 100 μL was injected subcutaneously into the right dorsal side of the mouse. When the size of the tumor reached about 100 mm^3, the negative control (excipient) and Example 1 were orally administered. In this case, positive control 1 (BMS-777607) was administered at a dose of 30 mpk. The drug was administered once a day for 4 weeks, and the tumor size and body weight were measured twice a week. After the drug administration was completed, the mice were euthanized, the tumor was extracted, and the weight was measured.

In assay [5] the test system is pancreatic cancer cell lines of mutation RONΔ155 type (Panc-1 and Capan-1) and RONΔ160 type (Mia-PaCa2). The experiment in a line: MTS assay, text summary over the three pancreatic cancer cell lines. Type of assay: cell-based. Conditions: Panc-1, Capan-1, Mia-PaCa2; 0.000001 μM to 10 μM, 72 hours. The protocol: as §1, §2
In assay [6] the test system is pancreatic cancer cell lines of a mutation RON type (Panc-1, Capan-1, Mia-PaCa2). The experiment in a line: Cell killing efficacy, trypan blue exclusion assay. In kind it is cell-based. Conditions: 1 μM and 5 μM, 48 hours. The protocol:
FIGS. 1A to IC illustrate the results obtained by comparing and confirming the cell killing efficacy for the Panc-1 and Capan-1 cell lines, which are pancreatic cancer cell lines of a mutation RONΔ155 type, and the Mia-PaCa2 cell line, which is a pancreatic cancer cell line of a mutation RONΔ160 type, having been treated with the compounds of Examples 1 (WM-S1-030) to 5 and positive control 1 (BMS-777607) at a concentration of 1 μM and 5 μM, respectively.
Two pancreatic cancer cell lines of a mutation RONΔ155 type (Panc-1 and Capan-1) and one pancreatic cancer cell line of a mutation RONΔ160 type (Mia-PaCa2) were dispensed, and 24 hours later, treated with 1 μM and 5 μM of the compounds of Examples 1 (WM-S1-030) to 5 and positive control 1 (BMS-777607), respectively, while replacing the medium. After 48 hours, the cells and the cell fluid were harvested (1,500 rpm, 4 minutes), and live cells and dead cells were quantified through trypan blue (15250-061, Gibco) exclusion assay. Statistical analysis was performed using T-test in Excel.

The test system of a further assay is cyclin D1. The experiment in a line: Immunochemical staining of tumor tissue, Mia-PaCa2 transplanted mouse model: cyclin D1. In kind it is in vivo. Conditions: 10 mpk, 30 mpk, Mia-PaCa2 transplanted mice. As for the experimental part:
(§3) FIG. 3 illustrates the results obtained by immunochemical staining of the tumor tissue for a mouse model transplanted with the Mia-PaCa2 cell line, which is a pancreatic cancer cell line of a mutation RONΔ160 type, having received Example 1 (WM-S1-030) at a dose of 10 mpk or 30 mpk and the positive control (BMS-777607) at a dose of 30 mpk.
(§4) Example 1 (WM-S1-030) was administered at each concentration (10 mpk, 30 mpk) and positive control 1 (BMS-777607) was administered at a dose of 30 mpk to a mouse model transplanted with the Mia-PaCa2 cell line, which is a pancreatic cancer cell line of a mutation RONΔ160 type. The tumor was extracted, and the expression changes of the proteins were analyzed by immunochemical staining.
(§5) Specifically, paraffin slides were prepared using tissues isolated from the sacrificed mice. The tissue sections were deparaffinized and rehydrated, immersed in the target recovery buffer 1× (ScyTek Laboratories, Cat #CBB999) and heated for 15 minutes to perform an antigen recovery process. After the reaction, the tissue sections were washed in Tris buffered saline-0.05% Tween 20 (TBS-T) (T&I, BTT-9310) for 5 minutes, and then the reaction was performed with a non-specific antibody response blocking reagent (vector, SP-5035) for 1 hour. […]

Another assay relates to cleaved caspase 3. The assay is described as follows: Immunochemical staining of tumor tissue, Mia-PaCa2 transplanted mouse model: cleaved caspase 3. Type of assay: in vivo. Particulars: 10 mpk, 30 mpk, Mia-PaCa2 transplanted mice. The protocol: as §3, §4, §5
The subject of another assay is pTyr-mRON. The assay is described as follows: Immunochemical staining of tumor tissue, Mia-PaCa2 transplanted mouse model: pTyr-mRON. Conditions: 10 mpk, 30 mpk, Mia-PaCa2 transplanted mice. Type of assay: in vivo. The protocol:
as §3, §4, §5

Molecules are shown by their SMILES. Structures can show the parent of a compound that is named as a salt.

For `COc1cc2c(Oc3ccc(NC(=O)c4c5c(cn(-c6ccc(F)cc6)c4=O)CCO5)cc3F)ccnc2cc1OCCN1CCOCC1` [Example 4, N-(3-fluoro-4-{[6-methoxy-7-(2-morpholinoethoxy)quinolin-4-yl]oxy}phenyl)-5-(4-fluorophenyl)-6-oxo-2,3,5,6-tetrahydrofuro[3,2-c]pyridine-7-carboxamide], the figures for the IC50 in [1], in assay [2] and in assay [3] were 320 nM, 460 nM and 370 nM, respectively.

Turning to `COc1cc2c(Oc3ccc(NC(=O)c4c5c(cn(-c6ccc(F)cc6)c4=O)CCO5)cc3F)ccnc2cc1OCCCN1CC(C#N)C1` [Example 5, N-[4-({7-[3-(3-cyanoazetidin-1-yl)propoxy]-6-methoxyquinolin-4-yl}oxy)-3-fluorophenyl]-5-(4-fluorophenyl)-6-oxo-2,3,5,6-tetrahydrofuro[3,2-c]pyridine-7-carboxamide], the values for the IC50 in assay [1], in assay [2] and in assay [3] were 170 nM, 310 nM and 150 nM, respectively.

For `CCOc1ccn(-c2ccccc2)c(=O)c1C(=O)Nc1ccc(Oc2ccnc3cc(-c4ccc(CN5CCN(C)CC5)cn4)sc23)c(F)c1` [Example 3, 4-ethoxy-N-{3-fluoro-4-[(2-(5-[(-methylpiperazin-1-yl)methyl]pyridin-2-yl)thieno[3,2-b]pyridin-7-yl)oxy]phenyl}-2-oxo-1-phenyl-1,2-dihydropyridine-3-carboxamide hydrochloride], the half-maximal inhibitory concentration (IC50) in [1] amounted to 370 nM; in [2] it was 1090 nM; in assay [3] it was 250 nM.

In the case of `CCOc1ccn(-c2ccc(F)cc2)c(=O)c1C(=O)Nc1ccc(Oc2ccnc(N)c2Cl)c(F)c1` [Positive control 1, N-{4-[(2-amino-3-chloro-4-pyridinyl)oxy]-3-fluorophenyl}-4-ethoxy-1-(4-fluorophenyl)-2-oxo-1,2-dihydro-3-pyridinecarboxamide, reference compound], the “Tumor growth inhibition rate (TGI, %)” value in assay [4] came out at 4.7 ± 7.4%. Also, the “tumor growth inhibition (in words)” value in assay [4] was “tumor growth was inhibited relatively little”. In addition, the “response to the drug / cell growth inhibition (MTS)” value in assay [5] is listed as “the response to the drug was low”. Moreover, the “cell death / response to the drug (trypan blue exclusion)” value in assay [6] is “the response to the drug was low”. The IC50 in [1] is > 10000 nM; in assay [2], > 10000 nM; in assay [3] it was 6060 nM.

For `CCOc1ccn(-c2ccccc2)c(=O)c1C(=O)Nc1ccc(Oc2ccnc3cc(-c4ccc(CNCCOC)cn4)sc23)c(F)c1` [Example 2, 4-ethoxy-N-(3-fluoro-4-{[2(5-{[(2-methoxyethyl)amino]methyl}pyridin-2-yl)thieno[3,2-b]pyridin-7-yl]oxy}phenyl)-2-oxo-1-phenyl-1,2-dihydropyridine-3-carboxamide hydrochloride], the figures for the concentration for half-maximal inhibition (IC50) in [1], in assay [2] and in assay [3] were 1540 nM, 3880 nM and 1840 nM, respectively.

Turning to `CCOc1ccn(-c2ccc(F)cc2)c(=O)c1C(=O)Nc1ccc(Oc2ccnc3cc(-c4ccc(CN5CCOCC5)cn4)sc23)c(F)c1.Cl` [Example 1, 4-ethoxy-N-[3-fluoro-4-({2-[5-(morpholinomethyl)pyridin-2-yl]thieno[3,2-b]pyridin-7-yl}oxy)phenyl]-1-(4-fluorophenyl)-2-oxo-1,2-dihydropyridine-3-carboxamide hydrochloride], the “Tumor growth inhibition rate (TGI, %)” value in assay [4] is recorded as 57.2 ± 3.1%. Also, in assay [4], the “tumor growth inhibition (in words)” value is “tumor growth was significantly inhibited”. Besides, the “expression of cyclin D1 (PD marker) in tumor tissue” value with cyclin D1 was “the expression of cyclin D1, a PD marker, was decreased”. The IC50 in assay [1] came to 630 nM; in assay [2] it was 2440 nM; in assay [3] it was 620 nM. Besides, the “expression of cleaved caspase 3 in tumor tissue” value with cleaved caspase 3 is “the expression of cleaved caspase 3 was induced”. The “expression of pTyr-mRON in tumor tissue” value in the assay on pTyr-mRON is “the expression of pTyr-mRON was decreased”.
